According to US7833785B2, “Method for chemical dissociation of cells from physical surfaces” (priority 2004, dated 2010):
Counter-ions that a name gives are not always drawn.

How the values were obtained:
mouse neurospheres [1] = assay: Different acidic neutralizing solutions after NaOH dissociation of mouse neurospheres; trypan blue exclusion, serial subculture; conditions: for Average Viable Cell Conc.: NaOH dissociation, acid as neutralizing solution; for Average Viable Cell Conc. / Average Cell Viability: n=3; for Average Cell Viability: trypan blue exclusion
Description: (§6) The viable cell concentration, viabilities, and fold increase in number of viable cells for mouse neurospheres exposed to different acidic neutralizing solutions following chemical dissociation. The aggregates were dissociated into a single cell suspension using an NaOH based dissociation solution. Acidic neutralizing solutions generated using a variety of acids (listed in table) were then added to counteract the high pH of the dissociation medium. Cell counts and viabilities were determined by trypan blue exclusion. Cells were serially subcultured for 4 passages in 25 cm^2 tissue culture flasks containing 5 mL of PPRF-m4 medium. The flasks were maintained in a humidified 37° C. incubator containing 5% CO2 (Average values, n=3).
(§7) All of the experiments conducted to test the effect of different neutralizing solutions employed an NaOH based dissociation medium to dissociate the cells.
(§8) Passage 3 mouse neurospheres originally procured from the striata of 14 day old embryonic mice were thawed and passaged twice (passage 5) in PPRF-m4 medium. These neuropsheres samples were previously dissociated by mechanical dissociation at each passage prior to being used for the experiments described here. Passage 5 mouse neurospheres were isolated and centrifuged (10 minutes, 140 g) to form a cell pellet in a 15 mL centrifuge tube. The supernatant was completely removed. The aggregates were then resuspended in 200 μL of fresh PPRF-m4 medium at room temperature by pipetting the cell pellet 5 times. 200 μL of an NaOH based alkaline dissociation medium was then added to the tube, and a stopwatch was used to time the procedure for 7 minutes. After 2 minutes and 5 minutes had elapsed, the cells were gently pipetted 5 times. After 7 minutes had elapsed, 200 μL of an acidic neutralizing medium was added to the mixture to decrease the pH, and the sample was gently pipetted 5 more times. […] The cell concentration and viability of the resulting cell suspension was determined using trypan blue exclusion, and the single cells were inoculated at 7.5×10^5 cells/mL into 25 cm^2 tissue culture flasks to determine if the neutralizing solution inhibited the cells from proliferating (Table 3). The cells were subsequently serially subcultured using the same neutralizing solution to which they had previously been exposed.

in vitro [2] = conditions: mouse, Average Cell Viability
Description: as §6, §7, §8

[3] = test system: mouse embryonic stem cells; assay: Detachment and dissociation of mouse embryonic stem cells using different bases in PBS with 10 mM EDTA; trypan blue exclusion; conditions: for Average Viable Cell Conc.: base in 1×PBS with 10 mM EDTA; for Average Viable Cell Conc. / Average Cell Viability: n=3; for Fold Increase in number of viable cells: inoculated at 3.13×10^4 cells/mL; for Average Cell Viability: trypan blue exclusion
Description: (§1) A total of five different dissociation solutions were tested for their ability to detach and dissociate mouse embryonic stem cells. Each solution was made by adding a different base to a basal solution (1×PBS solution containing 10 mM EDTA).
(§2) A volume of 2.0 mL of the appropriate dissociation solution was then added to each 25 cm^2 tissue culture flask, and the flasks were placed in an incubator at 37° C. The flasks were rocked intermittently over a period of 22 minutes after which gentle pipetting was used to break up any remaining clumps of cells. The cell suspension was collected and added to a sterile 15 mL tube containing 5.0 mL of medium and then centrifuged for 5 minutes at 1000 rpm. […] After centrifugation, the supernatant was discarded and the pellet was resuspended in 1.0 mL of medium.

in vitro [4] = conditions: mouse, Average Cell Viability; remark: listed apart in the source
Description: as §1, §2

mouse neurospheres [5] = assay: Dissociation of mouse neurospheres using different alkaline solutions; trypan blue exclusion, serial subculture; conditions: for Average Viable Cell Conc.: base in PPRF-m4, neutralized with HCl; for Average Viable Cell Conc. / Average Cell Viability: n=3; for Fold Increase in number of viable cells: inoculated at 0.75×10^5 cells/mL; for Average Cell Viability: trypan blue exclusion
Description: (§3) Table 2. […] Following dissociation, the pH was reduced by using neutralizing solution generated using HCl.
(§4) In order to counteract the pH effect of the alkaline dissociation solutions on the cells, an appropriate quantity of acidic medium was added.
(§5) The supernatant was completely removed. […] A volume of 200 μL was added to those samples dissociated with sodium hydroxide, potassium hydroxide or sodium phosphate tribasic dodecahydrate. A volume of 300 μL was added to those samples dissociated using ammonium hydroxide. […] Following the addition of the acidic medium, the cell sample was gently pipetted 5 more times.

in vitro [6] = conditions: mouse, Average Cell Viability; remark: listed apart in the source
Description: as §3, §4, §5

## O=S(=O)(O)O [Sulfuric Acid, sulfuric acid]
Mouse neurospheres [1]; passage 1
  Fold Increase in number of viable cells: 14
  Average Viable Cell Conc.: 10.5 10^5 cells/mL
Mouse neurospheres [1]; passage 2
  Fold Increase in number of viable cells: 18
  Average Viable Cell Conc.: 13.1 10^5 cells/mL
Mouse neurospheres [1]; passage 3
  Fold Increase in number of viable cells: 8
  Average Viable Cell Conc.: 6.1 10^5 cells/mL
Mouse neurospheres [1]; passage 4
  Fold Increase in number of viable cells: 15
  Average Viable Cell Conc.: 11.3 10^5 cells/mL
In vitro [2]
  viability: 89%

## N [Ammonium Hydroxide, ammonium hydroxide]
[3]; passage 1
  Average Viable Cell Conc.: 4.1 10^5 cells/mL
  Fold Increase in number of viable cells: 13
[3]; passage 2
  Average Viable Cell Conc.: 1.4 10^5 cells/mL
  Fold Increase in number of viable cells: 4
[3]; passage 3
  Average Viable Cell Conc.: 2.7 10^5 cells/mL
  Fold Increase in number of viable cells: 8
[3]; passage 4
  Average Viable Cell Conc.: 5.1 10^5 cells/mL
  Fold Increase in number of viable cells: 16
In vitro [4]
  viability at 22 min, 9.9 mM: 84%
Mouse neurospheres [5]; passage 1
  Average Viable Cell Conc.: 6.2 10^5 cells/mL
  Fold Increase in number of viable cells: 8
Mouse neurospheres [5]; passage 2
  Average Viable Cell Conc.: 8.4 10^5 cells/mL
  Fold Increase in number of viable cells: 11
Mouse neurospheres [5]; passage 3
  Average Viable Cell Conc.: 10.5 10^5 cells/mL
  Fold Increase in number of viable cells: 14
Mouse neurospheres [5]; passage 4
  Average Viable Cell Conc.: 9.1 10^5 cells/mL
  Fold Increase in number of viable cells: 12
In vitro [6]
  viability at 7 min, 23.8 mM: 91%

## O=C([O-])[O-].[Na+].[Na+] [Sodium Carbonate, sodium carbonate]
[3]; passage 1
  Average Viable Cell Conc.: 3.7 10^5 cells/mL
[3]; passage 2
  Average Viable Cell Conc.: 3.6 10^5 cells/mL
[3]; passage 3
  Average Viable Cell Conc.: 7.7 10^5 cells/mL
[3]; passage 4
  Average Viable Cell Conc.: 6.8 10^5 cells/mL
Mouse neurospheres [5]; passage 1
  Average Viable Cell Conc.: 7.7 10^5 cells/mL
Mouse neurospheres [5]; passage 2
  Average Viable Cell Conc.: 11.4 10^5 cells/mL
Mouse neurospheres [5]; passage 3
  Average Viable Cell Conc.: 11.1 10^5 cells/mL
Mouse neurospheres [5]; passage 4
  Average Viable Cell Conc.: 8.7 10^5 cells/mL

## Cl [HCl, hydrochloric acid]
Mouse neurospheres [1]; passage 1
  Fold Increase in number of viable cells: 14
  Average Viable Cell Conc.: 10.9 10^5 cells/mL
  Average Cell Viability: 91%
Mouse neurospheres [1]; passage 2
  Fold Increase in number of viable cells: 17
  Average Viable Cell Conc.: 12.7 10^5 cells/mL
  Average Cell Viability: 92%
Mouse neurospheres [1]; passage 3
  Fold Increase in number of viable cells: 12
  Average Viable Cell Conc.: 9.0 10^5 cells/mL
  Average Cell Viability: 92%
Mouse neurospheres [1]; passage 4
  Fold Increase in number of viable cells: 14
  Average Viable Cell Conc.: 10.2 10^5 cells/mL
  Average Cell Viability: 89%

## CC(=O)O [Acetic Acid, acetic acid]
Mouse neurospheres [1]; passage 1
  Fold Increase in number of viable cells: 13
  Average Viable Cell Conc.: 9.6 10^5 cells/mL
Mouse neurospheres [1]; passage 2
  Fold Increase in number of viable cells: 20
  Average Viable Cell Conc.: 14.3 10^5 cells/mL
Mouse neurospheres [1]; passage 3
  Fold Increase in number of viable cells: 10
  Average Viable Cell Conc.: 7.2 10^5 cells/mL
Mouse neurospheres [1]; passage 4
  Fold Increase in number of viable cells: 17
  Average Viable Cell Conc.: 12.8 10^5 cells/mL
In vitro [2]
  viability: 91%

## O.O.O.O.O.O.O.O.O.O.O.O.O=P([O-])([O-])[O-].[Na+].[Na+].[Na+] [Sodium Phosphate, sodium phosphate tribasic dodecahydrate]
[3]; passage 1
  Average Viable Cell Conc.: 4.2 10^5 cells/mL
  Fold Increase in number of viable cells: 14
  Average Cell Viability: 88%
[3]; passage 2
  Average Viable Cell Conc.: 2.0 10^5 cells/mL
  Fold Increase in number of viable cells: 6
  Average Cell Viability: 91%
[3]; passage 3
  Average Viable Cell Conc.: 4.1 10^5 cells/mL
  Fold Increase in number of viable cells: 13
  Average Cell Viability: 87%
[3]; passage 4
  Average Viable Cell Conc.: 6.7 10^5 cells/mL
  Fold Increase in number of viable cells: 21
  Average Cell Viability: 84%
Mouse neurospheres [5]; passage 1
  Average Viable Cell Conc.: 11.5 10^5 cells/mL
  Fold Increase in number of viable cells: 15
  Average Cell Viability: 87%
Mouse neurospheres [5]; passage 2
  Average Viable Cell Conc.: 7.3 10^5 cells/mL
  Fold Increase in number of viable cells: 10
  Average Cell Viability: 89%
Mouse neurospheres [5]; passage 3
  Average Viable Cell Conc.: 13.9 10^5 cells/mL
  Fold Increase in number of viable cells: 18
  Average Cell Viability: 89%
Mouse neurospheres [5]; passage 4
  Average Viable Cell Conc.: 10.2 10^5 cells/mL
  Fold Increase in number of viable cells: 14
  Average Cell Viability: 93%

## [K+].[OH-] [KOH, potassium hydroxide]
[3]; passage 1
  Average Viable Cell Conc.: 4.3 10^5 cells/mL
  Fold Increase in number of viable cells: 14
  Average Cell Viability: 89%
[3]; passage 2
  Average Viable Cell Conc.: 1.8 10^5 cells/mL
  Fold Increase in number of viable cells: 6
  Average Cell Viability: 86%
[3]; passage 3
  Average Viable Cell Conc.: 3.2 10^5 cells/mL
  Fold Increase in number of viable cells: 10
  Average Cell Viability: 81%
[3]; passage 4
  Average Viable Cell Conc.: 4.4 10^5 cells/mL
  Fold Increase in number of viable cells: 14
  Average Cell Viability: 81%
Mouse neurospheres [5]; passage 1
  Average Viable Cell Conc.: 7.1 10^5 cells/mL
  Fold Increase in number of viable cells: 9.4
  Average Cell Viability: 81%
Mouse neurospheres [5]; passage 2
  Average Viable Cell Conc.: 8.7 10^5 cells/mL
  Fold Increase in number of viable cells: 12
  Average Cell Viability: 85%
Mouse neurospheres [5]; passage 3
  Average Viable Cell Conc.: 13.9 10^5 cells/mL
  Fold Increase in number of viable cells: 18
  Average Cell Viability: 9%
Mouse neurospheres [5]; passage 4
  Average Viable Cell Conc.: 19.0 10^5 cells/mL
  Fold Increase in number of viable cells: 25
  Average Cell Viability: 93%

## O=P(O)(O)O [Phosphoric Acid, phosphoric acid]
Mouse neurospheres [1]; passage 1
  Fold Increase in number of viable cells: 15
  Average Viable Cell Conc.: 11.5 10^5 cells/mL
Mouse neurospheres [1]; passage 2
  Fold Increase in number of viable cells: 23
  Average Viable Cell Conc.: 17.3 10^5 cells/mL
Mouse neurospheres [1]; passage 3
  Fold Increase in number of viable cells: 6
  Average Viable Cell Conc.: 4.2 10^5 cells/mL
Mouse neurospheres [1]; passage 4
  Fold Increase in number of viable cells: 16
  Average Viable Cell Conc.: 11.8 10^5 cells/mL
In vitro [2]
  viability: 91%

## [Na+].[OH-] [NaOH, sodium hydroxide]
[3]; passage 1
  Average Viable Cell Conc.: 3.6 10^5 cells/mL
  Fold Increase in number of viable cells: 12
[3]; passage 2
  Average Viable Cell Conc.: 6.2 10^5 cells/mL
  Fold Increase in number of viable cells: 20
[3]; passage 3
  Average Viable Cell Conc.: 7.5 10^5 cells/mL
  Fold Increase in number of viable cells: 24
[3]; passage 4
  Average Viable Cell Conc.: 5.7 10^5 cells/mL
  Fold Increase in number of viable cells: 18
Mouse neurospheres [5]; passage 1
  Average Viable Cell Conc.: 8.7 10^5 cells/mL
  Fold Increase in number of viable cells: 12
Mouse neurospheres [5]; passage 2
  Average Viable Cell Conc.: 12.9 10^5 cells/mL
  Fold Increase in number of viable cells: 17
Mouse neurospheres [5]; passage 3
  Average Viable Cell Conc.: 8.8 10^5 cells/mL
  Fold Increase in number of viable cells: 12
Mouse neurospheres [5]; passage 4
  Average Viable Cell Conc.: 13.9 10^5 cells/mL
  Fold Increase in number of viable cells: 18
